# Data reported in patent publication US20080241194A1, “COMPOSITIONS AND METHODS FOR PROTECTING ORGANS, TISSUE AND CELLS FROM IMMUNE SYSTEM-MEDIATED DAMAGE” (THE BOARD OF TRUSTEES OF THE LELAND STANFORD JUNIOR …, priority 1998, published 2008).
# Assays:
# OCI-Ly8 tumor cell = test: ^51Cr release CIK cytotoxicity assay, tumor targets; type: cell-based, human; settings: OCI-Ly8 incubated with BFA 0-10 μM for 6 hours, E:T 20:1
# Description: (§1) Target cells were metabolically labelled with ^51Cr (Dupont—New England Nuclear, Boston, Mass.) by incubating 1×10^6 cells in […] ^51Cr at 37° C. for 1-1.5 hours. The labelled cells were washed three times with phosphate buffered saline (PBS) containing 0.1% bovine serum albumin. The labelled cells were distributed in flat-bottomed 96 well microtiter plates at a concentration of 2×10^4 cells/well in triplicate. Effector (CIK) cells were added at the indicated ratios. Mabs were added prior to the addition of effector cells, and incubated for 15-30 minutes at room temperature. The final volume of the assay mixture in each well was 0.2 ml. After 4 hours at 37° C., the cells were collected by centrifugation and an aliquot of the supernatant was counted in a gamma counter (Micromedic Systems, Horsham, Pa.). The percentage of specific ^51Cr release was calculated according to the following equation: […]
# Spontaneous release was obtained by incubating the labelled cells in complete medium alone and maximal release by treatment of the cells with 1% NP-40. […]
# huHsp47 RNA = test: Northern analysis of huHsp47 RNA expression in BFA treated EC; type: cell-based, human; settings: EC under BFA treatment, 0, 2 and 6 hour time points
# Description: Northern analysis of huHsp47 RNA expression was carried out via a^32P-ATP nick translation labeling of the agarose gel purified full-length huHSP47 cDNA as probe and human beta action (a kind gift of Dr. S.N. Cohen) cDNA as internal control probe. Total RNA was harvested at 0 hour, 2 hour and 6 hour time points from EC undergoing BFA treatment. RNA for each time point was purified, denatured, subjected to formamide flatbed agarose gel electrophoresis, transferred to nitrocellulose, prehybridized, hybridized with the ^32P-labelled probes, washed under stringent conditions and autoradiographed without intensifier screens at −80° C. using techniques well known to those skilled in the art (see Sambrook et al. Molecular Cloning, A Laboratory Manual, second edition, Cold Spring Harbor Laboratory Press, 1989).
# 46.5 KDa protein (Hsp47) = test: Immunoprecipitation and autoradiography of ^35S labeled 46.5 KDa protein from EC; type: cell-based, human
# Description: For metabolic ^35S methionine/cysteine labelling cells were cultured for 22 hours in cysteine and methionine free RPMI 1640 or Hams-F12K (Irvine Scientific, Santa Ana, Calif.) media with dialyzed FCS, otherwise as described above, prior to the addition of 100 μCi ml-1 of Translabel (PIERCE/Amersham, Amersham, UK) ^35S methionine/cysteine at the start of BFA, control treatment and incubated for the indicated times. Pulse-chase labelled proteins were analyzed by SDS-PAGE, western analysis or autoradiography and silver staining.
# Immunoprecipitation was carried out by first preparing preformed immune complexes as follows: Purified specific mouse monoclonal or rabbit polyclonal antibody were incubated in stoichiometric ratio with purified secondary goat anti-mouse or anti-rabbit antibody at a concentration of 10 μg ml-1 of 150 mM NaCl, 10 mM Tris-HCl, 1% (w/v) NP40, pH 7.8 with gentle agitation for 3 hours at 4° C. In a separate reaction their respective isotype matched control antibodies were coupled to protein A sepharose beads (Pharmacia, Uppsala, Sweden). […] The specific immune precipitate was recovered by centrifugation at 13,000 rpm for 30 minutes at 4° C., washed twice with 10 mM Tris-HCl at pH 6.8 and analyzed by SDS-PAGE and subsequent silver stain, transfer to solid support and streptavidin-AP detection and autoradiography. […]
# HUVEC = test: ^51Cr release CIK cytotoxicity assay, endothelial cell targets pre-treated with BFA, protein or peptide; type: cell-based, human; parameters: block of CIK mediated lysis of HUVECs: dose or concentration left out as unconfirmed
# Description: as §1
# Spontaneous release was obtained by incubating the labelled cells in complete medium alone and maximal release by treatment of the cells with 1% NP-40.
# For brefeldin A (BFA) treatment, freshly confluent HUVEC monolayers, nonadherent target cells or CIK cells at 0.5-2×10^6 cells per ml were incubated with medium supplemented with 0.5-10 μg of brefeldin A (B6hringer Mannheim GmbH, Mannheim, Germany) per ml medium and incubated for 2-6 hours in a humidified incubator with 5% carbon dioxide at 37° C. BFA was dissolved at 100 μg per ml in 70% ethanol and used fresh or stored up to 4 weeks at −20° C. Prior to cytotoxicity assay the cells were rinsed three times with PBS, and fresh medium not containing BFA was added for the remainder of the assay (FIG. 4).
# Both HUVEC and OCI-Ly8 cells were incubated with BFA at concentrations of 0, 2.5, 5, 7.5 and 10 μM for 6 hours as described above, washed, labeled with ^51Cr and used in a cytotoxicity assay with d21 CIK cells at an E:T ratio of 20:1. Preincubation of EC targets with 2.5 μM BFA reduced CIK mediated cytotoxicity by 40%.
# Subsequent to ^51Cr labeling but prior to addition of effector cells 10-200 μg FPLC purified Hsp47 (Example 7) protein or 10 nM to 10 μM HPLC purified peptide […] (SEQ ID NO:3) (Example 8), both in sterile PBS at pH 7.4 and diluted to the final concentration with RPMI, were added to targets per ml of medium and incubated for 30 minutes at 37° C. in a humidified atmosphere of 5% CO2. In assays using purified protein, targets were subjected to three subsequent washes with 10 volumes of Ca^2+, Mg^2+ and 5% FCS containing PBS prior to providing fresh standard culture medium to the target cells. In assays using purified peptide, the added peptide was present for the entire assay. The remainder of the assay was performed as detailed above, at 37° C. in a humidified atmosphere of 5% CO2.
# [1] = biological target: receptors for huHsp47 on CIK cells; test: FACS of mature d21 CIK cells stained with 10 ug/ml eGFP-huHsp47, PE-CD56 co-staining
# mature d21 CIK = test: FACS analysis of mature d21 CIK with eGFP-tagged huHsp47 probe; type: binding, human; settings: 10 μg eGFP-huHsp47 per ml, PE-CD56 co-staining
# Description: For Fluorescence Activated Cell Sorting (FACS) 10^6 effector or target cells were washed twice with Ca^2+, Mg^2+ and 5% FCS containing PBS buffer, suspended in 50 μl of this buffer and placed at 0-4° C. in the dark. 1 μg of FITC-, PE-, Per-CP or TriColor labelled monoclonal antibody (Beckton Dickinson, San Jose, Calif.) per staining reaction of 10^6 cells was mixed with the cells and incubated for 15 to 30 minutes at 0-4° C. in the dark. Stained cells were subjected to three subsequent washes with 10 volumes of Ca^2+, Mg^2+ and 5% FCS containing PBS and taken up in 500 μl of this buffer for analysis or sort by FACScan/FACStar (Beckton Dickinson, San Jose, Calif.) with excitation at 488 nm and the appropriate channel filters for detection of emission.
# The huHsp47δRDEL-enhanced green fluorescent protein (eGFP) fusion protein, expressed under the control of the CMV IE promoter, was isolated as described above and used as a FACS probe to search for huHsp47 cell surface binding proteins. […]
# eGFP-tagged Hsp47 FACS probe was generated through additional genetic engineering (FIG. 8A) (SEQ ID NOS: 15-18). […] FACS analysis of mature d21 CIK with eGFP-tagged HuHsp47 as FACS probe for the FITC channel, with CE56-PE co-staining, is based on differences in the Hsp47 binding ability of the analyzed CIK. […]
molecule,measurement,setting,value
"CC1CCCC=CC2CC(O)CC2C(O)C=CC(=O)O1 (centres unmarked) [BFA, 1,6,7,8,9,11a,12,13,14,14a-decahydro-1,13-dihydroxy-6-methyl-4H-cyclopent[f]oxacyclotridecin-4-one, reference compound]",effect on ability of CIK cells to lyse tumor targets,OCI-Ly8 tumor cell,did not affect
same,expression of housekeeping gene beta action,huHsp47 RNA,does not affect
same,huHsp47 gene expression,huHsp47 RNA,does upregulate
same,^35S labeled 46.5 KDa protein in IP from EC,46.5 KDa protein (Hsp47); non-protective dose of 30 μM BFA,not detectable
same,^35S labeled 46.5 KDa protein in IP from EC,46.5 KDa protein (Hsp47); protective dose of 10 μm BFA,contained a ^35S labeled 46.5 KDa protein
same,suppression of CIK mediated lysis of EC,"HUVEC; BFA 0, 2.5, 5, 7.5 and 10 μM for 6 hours, E:T 20:1",suppress the CIK mediated lysis of EC in a dose dependent manner
same,persistence of resistant EC state after removal of the agent,HUVEC; after BFA removal,at least six hours
same,block of CIK mediated lysis of HUVECs,"HUVEC; preincubation in BFA (so in the source), 6 hours, E:T 20:1",completely block
same,reduction of CIK mediated cytotoxicity against EC targets,"HUVEC; preincubation with 2.5 μM BFA for 6 hours, d21 CIK, E:T 20:1",40%
huHsp47δRDEL-enhanced green fluorescent protein (eGFP) fusion protein (from UniProt P50454 19-414),percent of cells positive for both eGFP-huHsp47 and PE-CD56 probes,[1],26%
"eGFP-huHsp47: huHsp47δRDEL-enhanced green fluorescent protein fusion protein used as FACS probe (protein, left off: large carriers, huHsp47δRDEL-enhanced green fluorescent protein fusion protein used as FACS probe) AEVKKPVEAAAPGTAEKLSSKATTLAEPSTGLAFSLYQAMAKDQAVENILVSPVVVASSLGLVSLGGKATTASQAKAVLSAEQLRDEEVHAGLGELLRSLSNSTARNVTWKLGSRLYGPSSVSFADDFVASSKQHYNCEHSKINFPDKRSALQSINEWAAQTTDGKLPEVTKDVESTDGALLVNAMFFKPHWDEKFHHKMVDNRGFMVTRSYTVGVTMMHRTGLYNYYDDEKEKLQLVEMPLAHKLSSLIILMPHHVEPLERLEKLLTKEQLKIWMGKMQKKAVAISLPKGVVEVTHDLQKHLAGLGLTEAIDKNKADLSRMSGKKDLYLASVFHATAFELDTDGNPFDQDIYGREELRSPKLFYADHPFIFLVRDTQSGSLLFIGRLVRLKGDKM",CIK cells stained by eGFP-tagged Hsp47 probe,mature d21 CIK,26%
